US12152024B2, “Pesticidally active heterocyclic derivatives with sulphur and hydroxylamine substituents” (SYNGENTA PARTICIPATIONS AG, priority 2016, dated 2024)
One block for each compound: values may come before it.

How the values were obtained:
[1] = tested on: Myzus persicae (Green Peach Aphid); assay: Activity against Myzus persicae (green peach aphid): systemic activity; assay type: in vivo; details: for mortality at 24 ppm: Myzus persicae, 144 h, test rate 24 ppm, systemic, pea seedling roots in test solution, 6 days
Method: Roots of pea seedlings infested with an aphid population of mixed ages were placed directly into aqueous test solutions prepared from 10′000 DMSO stock solutions. The samples were assessed for mortality 6 days after placing seedlings into test solutions.

[2] = tested on: Myzus persicae (Green Peach Aphid); assay: Activity against Myzus persicae (green peach aphid): feeding/contact activity; assay type: in vivo; details: for mortality at 200 ppm: Myzus persicae, 144 h, application rate 200 ppm, feeding/contact, mixed ages, 6 days after infestation
Method: Sunflower leaf discs were placed onto agar in a 24-well microtiter plate and sprayed with aqueous test solutions prepared from 10′000 ppm DMSO stock solutions. After drying, the leaf discs were infested with an aphid population of mixed ages. The samples were assessed for mortality 6 days after infestation.

[3] = tested on: Spodoptera littoralis (Egyptian Cotton Leaf Worm); assay: Activity against Spodoptera littoralis (Egyptian cotton leaf worm), uptake via lettuce roots from agar; assay type: in vivo; details: 144 h, test rate 12.5 ppm, 6 days after infestation, read-out: effect in at least one of the three categories (mortality, anti-feeding, or growth inhibition)
Text: Test compounds were applied by pipette from 10′000 ppm DMSO stock solutions into 24-well plates and mixed with agar. Lettuce seeds were placed onto the agar and the multi well plate was closed by another plate which contained also agar. After 7 days the compound was absorbed by the roots and the lettuce grew into the lid plate. The lettuce leaves were then cut off into the lid plate. Spodoptera eggs were pipetted through a plastic stencil onto a humid gel blotting paper and the lid plate was closed with it. The samples were assessed for mortality, anti-feedant effect and growth inhibition in comparison to untreated samples 6 days after infestation.

[4] = tested on: Diabrotica balteata (corn root worm); assay: Activity against Diabrotica balteata (corn root worm), maize sprouts sprayed; assay type: in vivo; details: for percent effect (mortality or growth inhibition) at 200 ppm: 96 h, application rate 200 ppm, L2 larvae, 4 days after infestation, read-out: effect in at least one of the two categories (mortality or growth inhibition)
Method: Maize sprouts placed onto an agar layer in 24-well microtiter plates were treated with aqueous test solutions prepared from 10′000 ppm DMSO stock solutions by spraying. After drying, the plates were infested with L2 larvae (6 to 10 per well). The samples were assessed for mortality and growth inhibition in comparison to untreated samples 4 days after infestation.

[5] = tested on: Plutella xylostella (Diamond Back Moth); assay: Activity against Plutella xylostella (diamond back moth), artificial diet; assay type: in vivo; details: for percent effect (mortality or growth inhibition) at 200 ppm: 120 h, application rate 200 ppm, L2 larvae, 5 days after infestation, read-out: effect in at least one of the two categories (mortality or growth inhibition)
Method: 24-well microtiter plates with artificial diet were treated with aqueous test solutions prepared from 10′000 ppm DMSO stock solutions by pipetting. After drying, the plates were infested with L2 larvae (10 to 15 per well). The samples were assessed for mortality and growth inhibition in comparison to untreated samples 5 days after infestation.

[6] = tested on: Spodoptera littoralis (Egyptian Cotton Leaf Worm); assay: Activity against Spodoptera littoralis (Egyptian cotton leaf worm), cotton leaf discs sprayed; assay type: in vivo; details: for percent control (mortality, anti-feedant effect or growth inhibition) at 200 ppm: foliar, 72 h, application rate 200 ppm, L1 larvae, 3 days after infestation, read-out: control (mortality, anti-feeding effect or growth inhibition)
Method: Cotton leaf discs were placed onto agar in 24-well microtiter plates and sprayed with aqueous test solutions prepared from 10′000 ppm DMSO stock solutions. After drying the leaf discs were infested with five L1 larvae. The samples were assessed for mortality, anti-feeding effect, and growth inhibition in comparison to untreated samples 3 days after infestation. Control of Spodoptera littoralis by a test sample is given when at least one of the categories mortality, anti-feedant effect, and growth inhibition is higher than the untreated sample.

[7] = tested on: Euschistus heros (Neotropical Brown Stink Bug); assay: Activity against Euschistus heros (neotropical brown stink bug), soybean leaves sprayed; assay type: in vivo; details: 120 h, application rate 200 ppm, N2 nymphs, 5 days after infestation, read-out: effect in at least one of the two categories (mortality or growth inhibition)
Method: Soybean leaves on agar in 24-well microtiter plates were sprayed with aqueous test solutions prepared from 10′000 ppm DMSO stock solutions. After drying the leaves were infested with N2 nymphs. The samples were assessed for mortality and growth inhibition in comparison to untreated samples 5 days after infestation.

[8] = tested on: Tetranychus urticae (Two-Spotted Spider Mite); assay: Activity against Tetranychus urticae (two-spotted spider mite); assay type: in vivo; details: 192 h, application rate 200 ppm, mixed population (mobile stages), 8 days after infestation
Method: Bean leaf discs on agar in 24-well microtiter plates were sprayed with aqueous test solutions prepared from 10′000 ppm DMSO stock solutions. After drying the leaf discs were infested with a mite population of mixed ages. The samples were assessed for mortality on mixed population (mobile stages) 8 days after infestation.

[9] = tested on: Bemisia tabaci (Cotton White Fly); assay: Activity against Bemisia tabaci (cotton white fly); assay type: in vivo; details: 144 h, application rate 200 ppm, adult white flies, 6 days after incubation
Method: Cotton leaf discs were placed on agar in 24-well microtiter plates and sprayed with aqueous test solutions prepared from 10′000 ppm DMSO stock solutions. After drying the leaf discs were infested with adult white flies. The samples were checked for mortality 6 days after incubation.

[10] = tested on: Franklinella occidentalis (Western Flower Thrips); assay: Activity against Franklinella occidentalis (western flower thrips); assay type: in vivo; details: Frankliniella occidentalis, 168 h; application rate 200 ppm; mixed ages; 7 days after infestation
Method: Sunflower leaf discs were placed on agar in 24-well microtiter plates and sprayed with aqueous test solutions prepared from […] stock solutions. After drying the leaf discs were infested with a Frankliniella population of mixed ages. The samples were assessed for mortality 7 days after infestation.

[11] = concentration 12.5 ppm, listed as drawing 143

SMILES: CCS(=O)(=O)c1cccnc1-c1nc2cc(C(F)(F)F)n(OC)c(=O)c2n1C [Compound A2, 2-(3-ethylsulfonyl-2-pyridyl)-5-methoxy-3-methyl-6-(trifluoromethyl) imidazo[4,5-c]pyridin-4-one]
- Mortality (%) ([1]; Myzus persicae (systemic), concentration 1.5 ppm, listed as drawing 143): 80%
- mortality at 24 ppm [1]: ≥ 80%
- Mortality (%) ([2]; Myzus persicae (feeding/contact), concentration 50 ppm, listed as drawing 143): 100%
- mortality at 200 ppm [2]: ≥ 80%
- percent effect (mortality, anti-feeding or growth inhibition) at 12.5 ppm [3]: ≥ 80%
- percent effect (mortality or growth inhibition) at 200 ppm [4]: ≥ 80%
- Mortality (%) ([4]; concentration 50 ppm, listed as drawing 143): 100%
- percent effect (mortality or growth inhibition) at 200 ppm [5]: ≥ 80%
- Mortality (%) [5, 11]: 80%
- Mortality (%) [6, 11]: 80%
- percent control (mortality, anti-feedant effect or growth inhibition) at 200 ppm [6]: ≥ 80%
- percent effect (mortality or growth inhibition) at 200 ppm [7]: ≥ 80%

SMILES: CCS(=O)(=O)c1ccc(-n2cncn2)nc1-c1nc2cc(C(F)(F)F)n(OC)c(=O)c2n1C [Compound A3, 2-[3-ethylsulfonyl-6-(1,2,4-triazol-1-yl)-2-pyridyl]-5-methoxy-3-methyl-6-(trifluoromethyl)imidazo[4,5-c]pyridin-4-one]
- mortality at 200 ppm [8]: ≥ 80%
- mortality at 24 ppm [1]: ≥ 80%
- mortality at 200 ppm [2]: ≥ 80%
- mortality at 200 ppm [9]: ≥ 80%
- percent effect (mortality or growth inhibition) at 200 ppm [4]: ≥ 80%
- percent effect (mortality or growth inhibition) at 200 ppm [5]: ≥ 80%
- percent control (mortality, anti-feedant effect or growth inhibition) at 200 ppm [6]: ≥ 80%
- percent effect (mortality or growth inhibition) at 200 ppm [7]: ≥ 80%

SMILES: CCS(=O)(=O)c1cc(C2(C#N)CC2)cnc1-c1nc2cc(C(F)(F)F)n(OC)c(=O)c2n1C [Compound A8, 1-[5-ethylsulfonyl-6-[5-methoxy-3-methyl-4-oxo-6-(trifluoromethyl)imidazo[4,5-c]pyridin-2-yl]-3-pyridyl]cyclopropanecarbonitrile]
- mortality at 200 ppm [8]: ≥ 80%
- mortality at 24 ppm [1]: ≥ 80%
- mortality at 200 ppm [2]: ≥ 80%
- mortality at 200 ppm [9]: ≥ 80%
- percent effect (mortality or growth inhibition) at 200 ppm [4]: ≥ 80%
- percent effect (mortality or growth inhibition) at 200 ppm [5]: ≥ 80%
- percent control (mortality, anti-feedant effect or growth inhibition) at 200 ppm [6]: ≥ 80%
- percent effect (mortality or growth inhibition) at 200 ppm [7]: ≥ 80%

SMILES: CCS(=O)(=O)c1cc(C2(C#N)CC2)ccc1-c1nc2cc(C(F)(F)F)n(OC)c(=O)c2n1C [Compound A9, 1-[3-ethylsulfonyl-4-[5-methoxy-3-methyl-4-oxo-6-(trifluoromethyl)imidazo[4,5-c]pyridin-2-yl)phenyl]cyclopropanecarbonitrile]
- mortality at 200 ppm [8]: ≥ 80%
- mortality at 24 ppm [1]: ≥ 80%
- mortality at 200 ppm [2]: ≥ 80%
- mortality at 200 ppm [9]: ≥ 80%
- percent effect (mortality or growth inhibition) at 200 ppm [4]: ≥ 80%
- percent effect (mortality or growth inhibition) at 200 ppm [5]: ≥ 80%
- percent control (mortality, anti-feedant effect or growth inhibition) at 200 ppm [6]: ≥ 80%
- percent effect (mortality or growth inhibition) at 200 ppm [7]: ≥ 80%

- melting point: 195 to 197 °C
SMILES: CCS(=O)(=O)c1ccc(Cl)nc1-c1nc2cc(C(F)(F)F)n(OC)c(=O)c2n1C [Compound A11, 2-(6-chloro-3-ethylsulfonyl-2-pyridyl)-5-methoxy-3-methyl-6-(trifluoromethyl)imidazo[4,5-c]pyridin-4-one]

SMILES: CCS(=O)(=O)c1cc(C(C)(C)C#N)cnc1-c1nc2cc(C(F)(F)F)n(OC)c(=O)c2n1C [Compound A12, 2-[5-ethylsulfonyl-6-[5-methoxy-3-methyl-4-oxo-6-(trifluoromethyl)imidazo[4,5-c]pyridin-2-yl]-3-pyridyl]-2-methyl-propanenitrile]
- mortality at 24 ppm [1]: ≥ 80%
- mortality at 200 ppm [2]: ≥ 80%
- mortality at 200 ppm [9]: ≥ 80%
- percent effect (mortality or growth inhibition) at 200 ppm [4]: ≥ 80%
- percent effect (mortality or growth inhibition) at 200 ppm [5]: ≥ 80%
- percent control (mortality, anti-feedant effect or growth inhibition) at 200 ppm [6]: ≥ 80%
- percent effect (mortality or growth inhibition) at 200 ppm [7]: ≥ 80%
- mortality at 200 ppm [10]: ≥ 80%

SMILES: CCS(=O)(=O)c1cc(Br)cnc1-c1nc2cc(C(F)(F)F)n(OC)c(=O)c2n1C [Compound A17, 2-(5-bromo-3-ethylsulfonyl-2-pyridyl)-5-methoxy-3-methyl-6-(trifluoromethyl)imidazo[4,5-c]pyridin-4-one]
- mortality at 24 ppm [1]: ≥ 80%
- mortality at 200 ppm [2]: ≥ 80%
- mortality at 200 ppm [9]: ≥ 80%
- percent effect (mortality or growth inhibition) at 200 ppm [4]: ≥ 80%
- percent effect (mortality or growth inhibition) at 200 ppm [5]: ≥ 80%
- percent control (mortality, anti-feedant effect or growth inhibition) at 200 ppm [6]: ≥ 80%
- percent effect (mortality or growth inhibition) at 200 ppm [7]: ≥ 80%
